{"source": "paper PMC3961628", "about": "(American Journal of Cardiovascular Drugs, 2013)", "key": {"[1]": {"format": "in vivo, healthy human subjects", "details": "for AUC(0-t) / AUC(0-inf) / Cmax: geometric mean (% CV); for AUC(0-inf): AUCINF; for Cmax: C max; for half-life: T ½"}, "Safety assessments": {"experiment": "Safety assessments", "format": "in vivo, healthy human subjects"}, "[2]": {"experiment": "Stability of apixaban in human plasma", "format": "in vitro ADME", "details": "at −20 °C"}, "[3]": {"details": "cited from earlier work"}, "[4]": {"details": "single oral 20-mg radiolabeled dose; bile collected 3–8 h after dose; cited from earlier work"}, "[5]": {"details": "BDC rats, intravenous [14C]apixaban; cited from earlier work"}, "[6]": {"details": "BDC dogs, cited from earlier work"}, "[7]": {"test_system": "major uptake transporters", "details": "cited from earlier work"}, "[8]": {"details": "cited from earlier work", "remark": "listed apart in the source"}, "[9]": {"details": "human, plasma, oral, 20 mg, Treatment A: apixaban 20 mg alone, n = 18"}, "[10]": {"details": "human, plasma, oral, Treatment B: apixaban 20 mg + activated charcoal 2 h after apixaban, n = 14"}, "[11]": {"details": "human, plasma, oral, Treatment C: apixaban 20 mg + activated charcoal 6 h after apixaban, n = 17"}, "[12]": {"details": "apixaban 2.5 mg solution released in the ascending colon"}, "[13]": {"details": "apixaban 2.5 mg solution released in the distal small bowel"}}, "note": "Read-outs that look alike come from different tables or passages of the source.", "data": [{"smiles": "COc1ccc(-n2nc(C(N)=O)c3c2C(=O)N(c2ccc(N4CCCCC4=O)cc2)CC3)cc1", "note": "[apixaban, 1-(4-methoxyphenyl)-7-oxo-6-(4-(2-oxopiperidin-1-yl)phenyl)-4,5,6,7-tetrahydro-1H-pyrazolo[3,4-c]pyridine-3-carboxamide]", "values": [{"measurement": "T ½", "setting": "[1]; Treatment A: apixaban 20 mg alone, n = 18, mean (SD)", "value": "13.4 (5.1) h"}, {"measurement": "T max", "setting": "[1]; Treatment C: apixaban 20 mg + activated charcoal 6 h after apixaban, n = 17, median (range)", "value": "2.5 (1.5–4.0) h"}, {"measurement": "Decrease in apixaban exposure (AUCINF) vs apixaban alone", "setting": "[1]; activated charcoal administered at 2 h post-dose", "value": 50, "unit": "%"}, {"measurement": "Decrease in apixaban exposure (AUCINF) vs apixaban alone", "setting": "[1]; activated charcoal administered at 6 h post-dose", "value": 28, "unit": "%"}, {"measurement": "Effect of activated charcoal on C max or T max of apixaban", "setting": "[1]; charcoal at 2 or 6 h post-dose", "value": "no effect"}, {"measurement": "Tmax", "setting": "[1]; human, plasma, oral, 20 mg", "value": 2.5, "unit": "h"}, {"measurement": "AUC(0-t)", "setting": "[1]; [9]", "value": 4080, "unit": "ng·h/mL"}, {"measurement": "AUC(0-inf)", "setting": "[1]; [9]", "value": 4180, "unit": "ng·h/mL"}, {"measurement": "Cmax", "setting": "[1]; [9]", "value": 380, "unit": "ng/mL"}, {"measurement": "AUC(0-t)", "setting": "[1]; human, plasma, oral, Treatment B: apixaban 20 mg + activated charcoal 50 g 2 h after apixaban, n = 14", "value": 2010, "unit": "ng·h/mL"}, {"measurement": "AUC(0-t)", "setting": "[1]; human, plasma, oral, Treatment C: apixaban 20 mg + activated charcoal 50 g 6 h after apixaban, n = 17", "value": 2950, "unit": "ng·h/mL"}, {"measurement": "AUC(0-inf)", "setting": "[1]; [10]", "value": 2030, "unit": "ng·h/mL"}, {"measurement": "AUC(0-inf)", "setting": "[1]; [11]", "value": 2980, "unit": "ng·h/mL"}, {"measurement": "Cmax", "setting": "[1]; [10]", "value": 366, "unit": "ng/mL"}, {"measurement": "Cmax", "setting": "[1]; [11]", "value": 383, "unit": "ng/mL"}, {"measurement": "half-life", "setting": "[1]; human, plasma, oral, Treatment B: apixaban 20 mg + activated charcoal 2 h after apixaban, n = 14, mean (SD)", "value": 5.3, "unit": "h"}, {"measurement": "half-life", "setting": "[1]; human, plasma, oral, Treatment C: apixaban 20 mg + activated charcoal 6 h after apixaban, n = 17, mean (SD)", "value": 4.9, "unit": "h"}, {"measurement": "Time for which mean plasma concentrations were quantifiable", "setting": "[1]; single oral 20-mg dose without activated charcoal, LLOQ 1 ng/mL", "value": "up to 72 h"}, {"measurement": "Proportion of subjects reporting adverse events", "setting": "Safety assessments; apixaban 20 mg alone", "value": 16.7, "unit": "%"}, {"measurement": "Tolerability", "setting": "Safety assessments; healthy subjects, single 20-mg doses", "value": "well tolerated"}, {"measurement": "Stability in human plasma", "setting": "[2]", "value": "at least 864 days"}, {"measurement": "Oral bioavailability", "setting": "[3]; background statement", "value": "approximately 50%"}, {"measurement": "Effect of food and changes in gastric pH on apixaban exposure", "setting": "[3]", "value": "no clinically relevant effect"}, {"measurement": "Terminal half-life (T ½)", "setting": "[3]", "value": "approximately 12 h"}, {"measurement": "Time to peak plasma concentration (C max)", "setting": "[3]; oral administration, immediate-release tablet, background statement", "value": "approximately 3 h"}, {"measurement": "Biliary excretion, share of total recovered radioactivity", "setting": "[4]", "value": "less than 3%"}, {"measurement": "Dose found in feces", "setting": "[5]", "value": "20–30 % of the dose"}, {"measurement": "Dose found in feces", "setting": "[6]; intravenous [14C]apixaban", "value": "40–50 % of the dose"}, {"measurement": "Effect of activated charcoal on fecal recovery and apparent systemic clearance", "setting": "[6]", "value": "increased fecal recovery and apparent systemic clearance"}, {"measurement": "Substrate status for major uptake transporters", "setting": "[7]", "value": "not a substrate"}, {"measurement": "AUC(0–T) lower than with oral administration", "setting": "[8]; [12]", "value": 84, "unit": "%"}, {"measurement": "C max lower than with oral administration", "setting": "[8]; [12]", "value": 90, "unit": "%"}, {"measurement": "AUC(0–T) lower than with oral administration", "setting": "[8]; [13]", "value": "approximately 60%"}, {"measurement": "C max lower than with oral administration", "setting": "[8]; [13]", "value": "approximately 60%"}]}]}
